Assay [1] deals with Wheat. Nature of the assay: Whole Plant Screen (2), wheat. Conditions: WW, 4000 ppm. Type of assay: in vivo, Wheat (Timmo). As for the experimental part: (§1) Compound numbers 12-13, 16-17 and 19-20 were tested on an alternative whole plant screen (2). The compounds were tested for plant growth regulator activity against five species for various growth effects relevant to plant growth regulation.
The plant species used in this screen are presented in Table IV with the leaf stage at which they were sprayed. Each chemical was applied at 4000 ppm (4 kg/ha in a 1000 l/ha field volume) using a tracksprayer and a SS8004E (Teejet) nozzle. […]
After 2-6 weeks in the glasshouse, depending on the time of year, the plants were visually assessed for morphological characteristics. Formulation blanks were used as controls to assess the plants. […]

In assay [2] the test system is Rice. As to the kind of experiment: Whole Plant Screen (2), rice. Type of assay: in vivo, Rice (Ishikari). Conditions: RC, 4000 ppm. As for the experimental part: (§2) After 2-6 weeks in the glasshouse, depending on the time of year, the plants were visually assessed for morphological characteristics. Formulation blanks were used as controls to assess the plants.
(§3) Compound numbers 1, 5 and 7 (of the present invention) were tested against compounds A, B, C and D (compound Nos. 12, 2, 24 and 50 of Table 1 EP No. 0052424) on whole plant screen (2). The compounds were tested of plant growth regulator activity against five species and for various growth effects relevant to plant growth regulation. The structures are set out in FIG. 1.
(§4) The plant species used in this screen are presented in Table XII with the leaf stage at which they were sprayed Each chemical was applied at 4000 ppm (4 kg/ha in a 1000 l/ha field volume) using a tracksprayer and a SS8004E (Teejet) nozzle. […]

Assay [3] relates to Rice. Nature of the assay: Intermediate Retardant Test, rice. Type of assay: in vivo, Rice (Ishikari). As to conditions: Oryza sativa, 672 h, ~28 days, read-out: Percentage Reduction in Height of Rice (Compared to formulation blank). How it is done: (§5) Three species are involved in this test RICE, SPRING-BARLEY and APPLES. The variety and growth stages at spray are outlined in Table VI. Compounds were applied at 1000 ppm and 4000 ppm respectively (1 kg and 4 kg ha^-1 at a field volume of 1000 l/ha^-1) as an overall spray. This gives a foliar and root component in the test, i.e. this test will detect the activity of both root and foliar acting compounds. The rice was grown in 4" `paddy` pots, i.e. the roots and bottom of the stems are immersed in water under conditions corresponding to those in paddy fields. Spring barley and apples were grown in 4" pots. The plants were assessed for height to top-most ligule at approximately 28 days after treatment for spring barley and rice and for height to apex at approximately 28 days after the treatment for apples. In each case the result for the 1000 ppm and 4000 ppm test for each compound is compared to the height of the formulation blank in that test, presented as a percentage reduction in height compared to the formulation blank.
as §5, with “in Table XIV. Compounds were” for “in Table VI. Compounds were”, “that test, and presented as” for “that test, presented as”

For a further assay, the system named is Spring Barley. As to the kind of experiment: Intermediate Retardant Test, spring barley. Type of assay: in vivo, Spring Barley (Atem/kym). Conditions: Hordeum vulgare, 672 h, ~28 days, read-out: Percentage Reduction in Height of Spring Barley (Compared to formulation blank). As for the experimental part: as §5
as §5, with “in Table XIV. Compounds were” for “in Table VI. Compounds were”, “that test, and presented as” for “that test, presented as”

A further assay relates to Apples. As to the kind of experiment: Intermediate Retardant Test, apples. As to conditions: 672 h, ~28 days, read-out: Percentage Reduction in Height of Apples (Compared to formulation blank). It counts as in vivo, Apples (Red Delicious). How it is done: as §5
as §5, with “in Table XIV. Compounds were” for “in Table VI. Compounds were”, “that test, and presented as” for “that test, presented as”

The test system of assay [4] is plant species of Whole Plant Screen (1) or (2). Nature of the assay: Across screen comparison: total retardation relative to paclobutrazol (Whole Plant Screens (1) and (2)). Type of assay: in vivo. As to conditions: for Total Retardation expressed as a percentage of the total retardation caused by paclobutrazol: compounds of Table I, Table X. An excerpt: The following Example is a general indicative comparison of compounds from EP No. 0052424 with compounds from the preferred class in the present invention. The compounds have not been side-by-side tested on this Example because of the large numbers involved but the retardant activity can be compared using a standard which has been on each test.
The compounds which are compared in this Example have been tested on one of two tests. These are the Whole Plant Screen (1) and Whole Plant Screen (2) the methods for which are described in Examples 17 and 18 respectively.
An across screen comparison between compounds is made by expressing the total retardation (ie. sum of retardation scores recorded for each species tested) caused by the compound as a percentage of the total retardation caused by the standard in that test. The standard chemical gives a measure of the performance of the test and environmental factors. By expressing the test compound activity as a percentage of the standard compound activity these factors can be eliminated . The same standard has been used in every test and this is paclobutrazol a proprietory growth regulator.

Assay [5] concerns Wheat. As to conditions: WW, 4000 ppm, 2-3 weeks.
Description: (§6) The compounds were tested for plant growth regulator activity against up to tweleve plant species for various growth effects relevant to plant growth regulation.
(§7) After spray, the plants were grown in a glasshouse with 25° C. day/22° C. night temperatures and supplementary lighting was supplied when necessary (from mercury vapour lamps), to provide a 16 hour photoperiod. The exception to this were the temperate cereals, wheat and barley, which were grown in 16° C. day 13° C. night temperatures
(§8) After 2-3 weeks in the glasshouse, depending on the time of year, the plants were visually assessed for morphological characteristics. Formulations blanks were used as controls to assess the Plants.
The next assay has as its system Agrostis tenius. Conditions: AT, 4000 ppm, 2-3 weeks.
A further assay concerns Cynosurus cristatus. As to conditions: CC, 4000 ppm, 2-3 weeks.
A further assay concerns Soya. Conditions: SY, 4000 ppm, 2-3 weeks.
The test system of a further assay is Vines. Conditions: VN, 4000 ppm, 2-3 weeks.
The subject of a further assay is Lettuce. As to conditions: LT, 4000 ppm, 2-3 weeks.
Assay [6] relates to Barley. Conditions: BR, 4000 ppm, 2-3 weeks.
Description: as §6, §7, §8
For the next assay, the system named is Dacrylis glomerata. Conditions: DA, 4000 ppm, 2-3 weeks.
Another assay concerns Tomato. As to conditions: TO, 4000 ppm, 2-3 weeks.
The subject of assay [7] is Barley. As to the kind of experiment: Whole Plant Screen (2), barley. It counts as in vivo, Barley (Atem). Conditions: BR, 4000 ppm, 2-6 weeks, Table V. How it is done: as §3, §4
The test system of a further assay is Maize. Nature of the assay: Whole Plant Screen (2), maize. Type of assay: in vivo, Maize (Earliking). As to conditions: MZ, 4000 ppm, 2-6 weeks, Table V. As for the experimental part:
as §1
The plant species used in this screen are presented in Table IV with the leaf stage at which they were sprayed. Each chemical was applied at 4000 ppm (4 kg/ha in a 1000 l/ha field volume) using a tracksprayer and a SS8004E (Teejet) nozzle.
After spray the plants were grown in a glasshouse with 25° C. day 22° C. night temperatures and supplementary lighting was supplied when necessary (from mercury vapour lamps), to provide a 16 hour photoperiod. The exception to this were the temperate cereals, wheat and barley which were grown in 16° C. day 13° C. night temperatures.
as §2, §3
The plant species used in this screen are presented in Table XII with the leaf stage at which they were sprayed Each chemical was applied at 4000 ppm (4 kg/ha in a 1000 l/ha field volume) using a tracksprayer and a SS8004E (Teejet) nozzle.
After spray the plants were grown in a glasshouse with 25° C. day/22° C. night temperatures and supplementary lighting was supplied when necessary (from mercury vapour lamps), to provide a 16 hour photoperiod. The exception to this were the temperate cereals, wheat and barley which were grown in 16° C. day/13° C. night temperatures.

Read-outs that look alike come from different tables or passages of the source.

Description for Agrostis tenius: as §6, §7, §8
Description for Cynosurus cristatus: as §6, §7, §8
Description for Dacrylis glomerata: as §6, §7, §8
Description for Lettuce: as §6, §7, §8
Description for Vines: as §6, §7, §8

Consider `CC(C)(C)C#CC(O)(Cn1cncn1)C(C)(C)C` (stereo not drawn) [Compound 5, 2,2-dimethyl-3-hydroxy-3-(3,3-dimethyl-but-1-yne-1-yl)-4-(1,2,4-triazol-1-yl)-butane], for which, in the assay with Wheat [1] (side-by-side, Table XIII), the “G = Greening effect” value is 2 (31-60%). The “T = Tillering or side shooting” value with Wheat [1] (side-by-side, Table XIII) is given as 2 (31-60%); with Rice [2] (side-by-side, Table XIII), 2 (31-60%). Besides, the Percent reduction in rice plant height vs formulation blank at 1000 ppm came to 11.4% in the assay with Rice [3] (Table VII) and 10% in the assay on Rice [3] (side-by-side, Table XVI). Moreover, the Percent reduction in rice plant height vs formulation blank at 4000 ppm turned out to be 21.2% with Rice [3] (Table VII) and 10% in the assay on Rice [3] (side-by-side, Table XVI). For the same compound, the height reduction vs blank at 1000 ppm was found to be 7% with Spring Barley (Table VIII) and 9% in the assay on Spring Barley (side-by-side, Table XV). The height reduction vs blank at 4000 ppm with Spring Barley (Table VIII) is 22.6%; in the assay on Spring Barley (side-by-side, Table XV) it was 11%. In addition, the percent reduction in plant height vs formulation blank at 1000 ppm with Apples (side-by-side, Table XVII) came to 2%. For the same compound, the percent reduction in plant height vs formulation blank at 4000 ppm with Apples (Table IX) is 31.5%; in the assay with Apples (side-by-side, Table XVII), 24%. For the same compound, in [4] (Tables X and XI, across screen comparison), the “range of activity / superiority in comparison with EP 0052424 compounds” value is recorded as “lower range of activity than the rest of the preferred class”. In addition, the “Total Retardation expressed as a percentage of the total retardation caused by paclobutrazol” value in assay [4] is recorded as 28.1 % of paclobutrazol. Further, the “Retardation score (1-3) with greening (G), apical damage (A), tillering/side shooting (T)” value (from here on “Retardation score … tillering/side shooting (T)”) is on record as 2 (21-60% retardation) in the assay with Wheat [5]; 1 (10-30% retardation) with Agrostis tenius; 2 (21-60% retardation) in the assay with Cynosurus cristatus; 2G in the assay on Soya; 1GT in the assay on Vines; 1 (10-30% retardation) in the assay with Lettuce.

As for `CCC(C)CC#CC(O)(Cn1cncn1)C(C)(C)C` (stereo not drawn) [Compound 10, 2,2-dimethyl-3-hydroxy-3-(4-methyl-hex-1-yne-1-yl)-4-(1,2,4-triazol-1-yl)-butane], the Percent reduction in rice plant height vs formulation blank at 1000 ppm in the assay with Rice [3] (Table VII) was determined as 20.7%. In the assay with Rice [3] (Table VII), the Percent reduction in rice plant height vs formulation blank at 4000 ppm was 38.2%. In addition, in the assay on Spring Barley (Table VIII), the height reduction vs blank at 1000 ppm was found to be 20.2%. The height reduction vs blank at 4000 ppm in the assay on Spring Barley (Table VIII) is 72.4%. For the same compound, the percent reduction in plant height vs formulation blank at 1000 ppm in the assay on Apples (Table IX) worked out at 9.8%. For the same compound, the percent reduction in plant height vs formulation blank at 4000 ppm with Apples (Table IX) is 27.1%. Further, in assay [4], the “Total Retardation expressed as a percentage of the total retardation caused by paclobutrazol” value is listed as 47.8 % of paclobutrazol. Moreover, the “Retardation score … tillering/side shooting (T)” value is 2GT in the assay on Wheat [5]; 2GT in the assay on Barley [6]; 1 (10-30% retardation) in the assay on Agrostis tenius; 2 (21-60% retardation) with Cynosurus cristatus; 1 (10-30% retardation) with Dacrylis glomerata; 2GA in the assay on Soya. Moreover, the “Retardation score … tillering/side shooting (T)” value in the assay on Tomato was 1G.

As for `CC(C)(C)C(O)(C#CCCCCl)Cn1cncn1` (stereo not drawn) [Compound 13], the “I = Interligular or internodal length reduction” value with Barley [7] is reported as 2 (31-60%). Moreover, in the assay with Wheat [1] (2-6 weeks, Table V), the “G = Greening effect” value is on record as 1 (10-30%) and the “T = Tillering or side shooting” value is 1 (10-30%). Further, in the assay with Rice [2] (2-6 weeks, Table V), the “I = Interligular or internodal length reduction” value is 2 (31-60%), the “R = Retardation” value is on record as 2 (31-60%) and the “T = Tillering or side shooting” value is 1 (10-30%). Moreover, in the assay on Maize, the “I = Interligular or internodal length reduction” value is listed as 1 (10-30%) and the “R = Retardation” value is given as 1 (10-30%). In the assay with Rice [3] (Table VII), the Percent reduction in rice plant height vs formulation blank at 1000 ppm is 6% and the Percent reduction in rice plant height vs formulation blank at 4000 ppm amounted to 5.2%. In the assay on Spring Barley (Table VIII), the height reduction vs blank at 1000 ppm was found to be 17% and the height reduction vs blank at 4000 ppm is 41%. Further, in the assay on Apples (Table IX), the percent reduction in plant height vs formulation blank at 1000 ppm stood at 2.8% and the percent reduction in plant height vs formulation blank at 4000 ppm is 9.2%. Further, the “Total Retardation expressed as a percentage of the total retardation caused by paclobutrazol” value in assay [4] was 83.3 % of paclobutrazol.

The values are drawn from patent US4895589A, “Heterocyclic compounds” (Imperial Chemical Industries PLC, priority 1985, dated 1990).
